Experimental findings from the supplement of paper PMC11061612 are described below.

Test [1] deals with CHP-134 (Neuroblastoma). Put plainly: Bliss excess, mean over the matrix (fraction); higher = more synergy. Put shortly:
(§1)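 Cell lines grown in DMEM/F12 or RPMI with 10% FBS were plated in 1536-well plates and held 24 hours at 37°C, 5% CO2 before 72 hours of exposure to two-drug dose matrices, with DMSO typically at 0.2%. CellTiter-Glo 2.0 luminescence gave viability, which was converted to inhibition. Vehicle wells were set to 0 and blank wells to 1. Combination Emax is the second-highest inhibition in the matrix, and Bliss excess is the observed combination effect minus the expected EA + EB − EA·EB, where EA and EB are the single-agent effects.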

Test [2] has as its system NCI-H720 (Other Solid Carcinomas). The description is as above. Put shortly:
as §1

In a further test the test system is A673 (Ewing's Sarcoma). Put plainly: combination Emax (second highest fraction inhibited in the dose matrix, 72 h); higher = more inhibition; extreme values may be limits of the assay. Put shortly:
as §1

Test [3] has as its system CHP-134 (Neuroblastoma). The description is as above. Put shortly: as §1
The subject of test [4] is Detroit562 (Head and Neck Carcinoma). The test is described as above. Put shortly: as §1
The test system of test [5] is ESS-1 (Other Solid Carcinomas). The description is as above. Put shortly:
as §1

Test [6] relates to Hs-746T (Gastric Carcinoma). The test is described as above. Put shortly:
as §1

Test [7] has as its system NCI-H209 (Small Cell Lung Carcinoma). The test is described as above. Put shortly:
as §1

The next test concerns NCI-H2722 (Mesothelioma). The description is as above. Put shortly: as §1
For test [8], the system named is NCI-H524 (Small Cell Lung Carcinoma). Described as above. Put shortly:
as §1

Test [9] has as its system NCI-H720 (Other Solid Carcinomas). The description is as above. Put shortly:
as §1

The test system of test [10] is OVCAR-5 (Ovarian Carcinoma). The description is as above. Put shortly:
as §1

Test [11] deals with SAS (Oral Cavity Carcinoma). The description is as above. Put shortly: as §1
The test system of test [12] is TGBC1TKB (Biliary Tract Carcinoma). Described as above. Put shortly: as §1
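Throughout, for Bliss excess, mean over the matrix: after 72 h of two-drug dosing.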

For `CN(C)CCCOc1ccc(-c2ccc3ncc4c(c3c2)n(C2CCOCC2)c(=O)n4C)cn1` [AZD0156] + O=C(c1cc(Cc2n[nH]c(=O)c3ccccc23)ccc1F)N1CCN(C(=O)C2CC2)CC1 [Olaparib] (first compound max 3 µM, partner max 3 µM), the Bliss excess with CHP-134 (Neuroblastoma) [1] was 0.174; in [2] it was 0.0622. Moreover, the “combination Emax” value in the test with A673 (Ewing's Sarcoma) amounted to 0.653; with CHP-134 (Neuroblastoma) [3], 0.434; in test [4] it was 0.435; in test [5], 0.489; in [6] it was 0.378; in [7], 0.792. For the same molecule, the “combination Emax” value with NCI-H2722 (Mesothelioma) was 0.181; in test [8], 0.496; in [9] it was 0.371; in test [10], 0.45; in test [11], 0.212; in test [12], 0.157.
With `C=CCn1c(=O)c2cnc(Nc3ccc(N4CCN(C)CC4)cc3)nc2n1-c1cccc(C(C)(C)O)n1` [AZD1775] + C1CN(CCC1(C(=O)N[C@@H](CCO)C2=CC=C(C=C2)Cl)N)C3=NC=NC4=C3C=CN4 [Capivasertib] (first compound max 3 µM, partner max 3 µM), the Bliss excess with CHP-134 (Neuroblastoma) [1] was -0.0416; in test [2] it was -0.0252. Besides, the “combination Emax” value stood at 0.526 in the test on A673 (Ewing's Sarcoma); 0.844 with CHP-134 (Neuroblastoma) [3]; 0.92 in test [4]; 0.949 in test [5]; 0.772 in test [6]; 0.873 in test [7]. For the same molecule, the “combination Emax” value came to 0.262 in the test with NCI-H2722 (Mesothelioma); 0.847 in [8]; 0.842 in test [9]; 0.572 in [10]; 0.798 in test [11]; 0.434 in test [12].
`CCc1c2c(nc3ccc(O)cc13)-c1cc3c(c(=O)n1C2)COC(=O)[C@]3(O)CC` [SN-38] + CN(C)CCCOc1ccc(-c2ccc3ncc4c(c3c2)n(C2CCOCC2)c(=O)n4C)cn1 [AZD0156] (first compound max 0.3 µM, 7x7, partner max 1 µM): the Bliss excess in [2] came out at 0.035. Further, the “combination Emax” value stood at 0.996 in the test with A673 (Ewing's Sarcoma); 0.848 in test [4]; 1 in [5]; 0.531 in [6]; 1 in test [7]; 0.301 in the test with NCI-H2722 (Mesothelioma). The “combination Emax” value is 0.608 in [8]; 0.397 in test [9]; 0.567 in test [10]; 1 in test [11]; 0.366 in [12].
